Results on one compound are retold here after patent publication US20230090742A1, “AMINOPYRIMIDINYLAMINOBENZONITRILE DERIVATIVES AS NEK2 INHIBITORS” (Sumitomo Pharma Oncology, Inc., priority 2020, published 2023).

In assay [1] the test system is phosphorylation of PP1α and HEC1. In words: Western blot analysis for phospho-PP1α and phospho-Hec1 in cell cycle synchronized MDA-MB-231 cells. The class given is cell-based. Conditions: double thymidine block and nocodazole, 10, 50, 100, and 500 nM. How it is done: (§1) Reagents. MDA-MB-231 (Breast adenocarcinoma, triple negative breast cancer) and SW480 (colorectal adenocarcinoma, stem-like subtype) cells were purchased from ATCC and cultured as per manufacturer's instruction. Thymidine (Sigma, T9250) stock solution (100 mM) was prepared in PBS. 2′-Deoxycytidine (Sigma, D897) stock solution (240 mM) was prepared in distilled H2O. Nocodazole (Selleck Chemicals, S2775) stock solution (5 mg/mL) was made in dimethyl sulfoxide (DMSO). FxCycle Far Red stain (F10348) for cell cycle analysis was purchased from Thermo Fisher Scientific.
Antibodies. […]
Cell Cycle Synchronization. […] Effectiveness of NEK2 inhibitors (Cmpd-16 and Cmpd-18) were assessed by adding small molecule inhibitors with nocodozole at 10, 50, 100, and 500 nM concentration at the time of nocodazole addition. […]
Immunoblot Analysis. […] Whole cell lysates were sonicated and centrifuged at 16000×g for 10 minutes at 4° C., and protein concentration of the supernatant were determined using BCA Protein assay kit (ThermoScientific, 23225). Equal amounts of protein lysates (30 μg/lane and 10 μg/lane only for Histone H3 immunoblots) were fractionated on a NuPAGE Novex 4%-12% Bis-Tris Protein Gel (Thermo Fisher Scientific, NP0335BOX) and transferred onto a low fluorescence PVDF membrane (Millipore, IPFL07810). […] Li-Cor Image Studio software was used for western blot analysis and quantification
For orientation: Immunoblotting shows a protein as a band on a membrane.

The next assay relates to EZH2 expression. Briefly: Flow cytometry analysis for EZH2 expression in SW480 cells. Type of assay: cell-based. Conditions: Homo sapiens, 24 hours treatment, 0-1000 nM, haploid and diploid cells, read-out: dose dependent decrease in EZH2 expression, IC50. The protocol: as §1
Antibodies. Polyclonal antibodies to phosphorylated-Ser55 Hec1 (PA5-85846; 1:1000) were purchased from ThermoFisher Scientific, and Phospho-Thr320 PP1α (2581S; 1:1000) and Total PP1α (2582S; 1:1000) were purchased from Cell Signaling Technologies. Monoclonal antibodies to Phospho-Ser10 Histone H3 (53348S; 1:1000), Total Histone H3 (14269; 1:5000), and EZH2-FITC (30233, 1:50) antibodies were purchased from Cell Signaling Technologies; Total Hec1 (ab109496; 1:10000) was purchased from Abcam; and Total NEK2 (sc-55601; 1:200) and GAPDH (sc-365062; 1:1000-2000) antibodies were purchased from Santa Cruz Technologies.
Flow Cytometry Analysis. […] A minimum of 100,000 events were analyzed in each sample, and the results were evaluated using FlowJo software. […]

Consider `N#Cc1c(Nc2nc(Nc3ccc(N4CCNCC4)cc3)ncc2Cl)cccc1OCc1ccccc1F` [Compound 16, 2-((5-chloro-2-((4-(piperazin-1-yl)phenyl)amino)pyrimidin-4-yl)amino)-6-((2-fluorobenzyl)oxy)benzonitrile], for which, in assay [1], the “phosphorylation of PP1α and HEC1 (HistoneH3 phosphorylation as marker of mitosis)” value was “more specifically inhibited phosphorylation of PP1α and HEC1 without interfering in cell cycle progression than Cmpd-18”. Further, in the assay with EZH2 expression, the IC50 – broadly, the concentration that gives 50% inhibition – was found to be 0.184 µM.
